Source: patent publication US20090203523A1, “Fungicidal Mixtures Made From 1-Methylpyrazol-4-Ylcarboxanilides” (BASF AKTIENGESSELLSCHFT, priority 2005, published 2009)

What was measured:
Botrytis cinerea = experiment: Activity against gray mold on bell pepper leaves, 1 day protective use; type: in vivo; settings: 16 mg/l; bell pepper seedlings, efficacy in % of untreated control, evaluated after 5 days
Pyrenophora teres = experiment: Activity against net blotch of barley, 1 day protective application; type: in vivo; settings: barley seedlings, efficacy in % of untreated control, evaluated after 6 days
Phytophthora infestans = type: cell-based; settings: 0.25 mg/l; microtiter plate, absorption at 405 nm on day 7
Puccinia recondita [1] = experiment: Curative activity against brown rust of wheat; type: in vivo; settings: wheat seedlings, efficacy in % of untreated control, 7 days
Puccinia recondita [2] = experiment: Protective activity against brown rust of wheat; type: in vivo; settings: wheat seedlings, efficacy in % of untreated control

Compound: COC(=O)N(OC)c1ccccc1COc1ccn(-c2ccc(Cl)cc2)n1 [pyraclostrobin, methyl N-{2-[1-(4-chlorophenyl)-1H-pyrazol-3-yloxymethyl]phenyl}(N-methoxy)carbamate, reference compound]
- Observed efficacy (% of untreated control) (Botrytis cinerea): 10%

Compound: CC1CCN(c2c(-c3c(F)cc(F)cc3F)c(Cl)nc3ncnn23)CC1 [5-chloro-7-(4-methylpiperidin-1-yl)-6-(2,4,6-trifluorophenyl)-[1,2,4]triazolo[1,5-a]pyrimidine]
- Observed activity (Pyrenophora teres; 1 mg/l): 44%

Compound: Cn1nc(C(F)(F)F)c(C(=O)Nc2ccccc2-c2ccc(C(F)(F)F)cc2)c1F [No. I.3, N-(4′-trifluoromethylbiphenyl-2-yl)-1-methyl-3-trifluoromethyl-5-fluoro-1H-pyrazole-4-carboxamide]
- melting point: 170 to 173 °C

Compound: CC1(C)CC/C(=C\c2ccc(Cl)cc2)C1(O)Cn1cncn1 (stereo not shown) [triticonazole, (5E)-5-[(4-chlorophenyl)methylene]-2,2-dimethyl-1-(1H-1,2,4-triazol-1-ylmethyl)cyclopentanol, reference compound]
- Observed activity (% infection) (Phytophthora infestans): 0%

Compound: zinc ammoniate ethylenebis(dithiocarbamate) [metiram]
- Observed activity (Pyrenophora teres; 16 mg/l): 0%

Compound: Cn1cc(C(=O)Nc2ccccc2-c2ccc(C(F)(F)F)cc2)c(C(F)(F)F)n1 [No. I.1, N-(4′-trifluoromethylbiphenyl-2-yl)-1-methyl-3-trifluoromethyl-1H-pyrazole-4-carboxamide]
- Observed activity (Pyrenophora teres; 0.25 mg/l): 11%
- Observed activity (Pyrenophora teres; 1 mg/l): 56%
- Observed activity (% infection) (Phytophthora infestans): 3%
- melting point: 175 to 177 °C

Compound: N#Cc1c(Cl)c(Cl)c(Cl)c(C#N)c1Cl [chlorthalonil, 2,4,5,6-tetrachloroisophthalonitrile, reference compound]
- Observed activity (Pyrenophora teres; 16 mg/l): 0%
- Observed activity (efficacy, % of untreated control) (Puccinia recondita [1]; 16 mg/l): 0%

Compound: Cn1nc(Cl)c(C(=O)Nc2ccccc2-c2ccc(C(F)(F)F)cc2)c1C(F)F [No. I.8, N-(4′-trifluoromethylbiphenyl-2-yl)-1-methyl-3-chlorodifluoromethyl-1H-pyrazole-4-carboxamide]
- melting point: 193 to 196 °C

Compound: COc1cc(C)c(C(=O)c2c(OC)ccc(Br)c2C)c(OC)c1OC [metrafenone, 3′-bromo-2,3,4,6′-tetramethoxy-2′,6-dimethylbenzophenone]
- Observed activity (Pyrenophora teres; 4 mg/l): 0%
- Observed efficacy (% of untreated control) (Puccinia recondita [2]; 63 mg/l): 0%

Compound: Cc1nn(C)cc1C(=O)Nc1ccccc1-c1ccc(C(F)(F)F)cc1 [No. I.6, N-(4′-trifluoromethylbiphenyl-2-yl)-1,3-dimethyl-1H-pyrazole-4-carboxamide]
- melting point: 174 to 177 °C

Compound: COc1ccc(C(=CC(=O)N2CCOCC2)c2ccc(Cl)cc2)cc1OC [dimethomorph, 3-(4-chlorophenyl)-3-(3,4-dimethoxyphenyl)-1-morpholin-4-yl-propenone]
- Observed activity (Pyrenophora teres; 16 mg/l): 0%
- Observed efficacy (% of untreated control) (Puccinia recondita [2]; 63 mg/l): 0%

Compound: Fc1ccc([C@]2(Cn3cncn3)O[C@H]2c2ccccc2Cl)cc1 (racemic) [epoxiconazole, (2RS,3SR)-1-[3-(2-chlorophenyl)-2,3-epoxy-2-(4-fluorophenyl)propyl]-1H-1,2,4-triazole, reference compound]
- Observed activity (efficacy, % of untreated control) (Puccinia recondita [1]; 0.063 mg/l): 0%

Compound: Cn1cc(C(=O)Nc2ccccc2-c2ccc(C(F)(F)F)cc2)c(C(F)F)n1 [No. I.2, N-(4′-trifluoromethylbiphenyl-2-yl)-3-difluoromethyl-1-methyl-1H-pyrazole-4-carboxamide]
- Observed efficacy (% of untreated control) (Botrytis cinerea): 70%
- Observed activity (efficacy, % of untreated control) (Puccinia recondita [1]; 0.25 mg/l): 0%
- Observed activity (efficacy, % of untreated control) (Puccinia recondita [1]; 1 mg/l): 56%
- Observed efficacy (% of untreated control) (Puccinia recondita [2]; 16 mg/l): 0%
- melting point: 164 to 165 °C

Compound: Cc1nn(C)c(Cl)c1C(=O)Nc1ccccc1-c1ccc(C(F)(F)F)cc1 [No. I.5, N-(4′-trifluoromethylbiphenyl-2-yl)-1,3-dimethyl-5-chloro-1H-pyrazole-4-carboxamide]
- melting point: 173 to 175 °C

Compound: Cn1cc(C(=O)Nc2ccccc2-c2ccc(C(F)(F)F)cc2)c(CF)n1 [No. I.7, N-(4′-trifluoromethylbiphenyl-2-yl)-1-methyl-3-fluoromethyl-1H-pyrazole-4-carboxamide]
- melting point: 156 to 158 °C
